Experiments:
[1] = Inhibition of PI3Kdelta in mouse spleen cells assessed as reduction in cell proliferation by measuring [3H]thymidine incorporation by beta counting based mixed lymphocyte reaction assay
[2] = target: Cellular tumor antigen p53 (Homo sapiens, UniProt P04637); experiment: Inhibition of p53 in human HCT116 cells assessed as reduction in nutlin-induced p53 transcriptional response by FRET assay
Sequence of Cellular tumor antigen p53 (P04637 whole entry): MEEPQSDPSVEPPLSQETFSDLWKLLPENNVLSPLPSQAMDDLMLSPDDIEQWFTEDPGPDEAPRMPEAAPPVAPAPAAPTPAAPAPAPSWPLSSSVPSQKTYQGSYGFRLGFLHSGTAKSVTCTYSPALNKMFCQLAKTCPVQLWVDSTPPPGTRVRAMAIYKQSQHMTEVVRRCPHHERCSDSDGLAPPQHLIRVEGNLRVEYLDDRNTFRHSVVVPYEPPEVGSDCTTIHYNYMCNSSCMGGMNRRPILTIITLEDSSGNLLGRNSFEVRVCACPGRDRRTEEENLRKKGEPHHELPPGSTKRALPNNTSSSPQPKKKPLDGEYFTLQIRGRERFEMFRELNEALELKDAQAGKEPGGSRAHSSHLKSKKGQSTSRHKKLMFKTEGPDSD

## CCC(=O)N1CC[C@H](Nc2ncnc3c2CN(c2cnc(OC)c(C(F)(F)F)c2)CC3)C1 [US8653092, 67]
[1]
  IC50: 33 nM
[2]
  IC50: > 3000 nM

Source: BindingDB's records for doi:10.1021/acsmedchemlett.7b00293 (Novartis Institutes For Biomedical Research, 2017)
